Results: US8455475B2 (Gruenenthal GmbH, priority 2009, dated 2013)

Key:
[1] = target: T1, human B1R (bradykinin receptor 1) (Homo sapiens, UniProt P46663); experiment: FLIPR Ca2+ assay (Fluo-4) on CHO K1 cells stably transfected with the human B1R gene (hB1R cells): % inhibition at 10 μM / IC50, agonist Lys-Des-Arg9-bradykinin; format: cell-based; conditions: CHO-K1, human B1R
T1 construct: expressed in transfected cells; host or cells: CHO K1 cells
T1 sequence (P46663 1-353): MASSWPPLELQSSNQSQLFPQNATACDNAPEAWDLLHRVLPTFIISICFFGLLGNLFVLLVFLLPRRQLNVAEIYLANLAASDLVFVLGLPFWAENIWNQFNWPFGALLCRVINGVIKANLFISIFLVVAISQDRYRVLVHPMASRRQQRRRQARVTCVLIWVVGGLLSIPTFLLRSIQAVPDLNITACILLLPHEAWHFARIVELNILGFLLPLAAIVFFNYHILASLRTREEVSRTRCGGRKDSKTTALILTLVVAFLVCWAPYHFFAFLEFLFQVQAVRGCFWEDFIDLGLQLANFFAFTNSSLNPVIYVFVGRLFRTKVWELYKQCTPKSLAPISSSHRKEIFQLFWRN
Summary of the method: (§1)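 Using a two-addition FLIPR protocol, compound (10 μM for % values; concentration series for IC50) was preincubated 10–20 min with Fluo-4-loaded B1R-expressing CHO K1 cells before EC80 agonist challenge. Suppression of Ca2+ inflow, read as peak fluorescence, is expressed relative to maximum achievable inhibition; duplicate/triplicate, ≥2 independent experiments.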

[2] = target: T2, rat B1R (bradykinin receptor 1) (Rattus norvegicus, UniProt P97583); experiment: FLIPR Ca2+ assay (Fluo-4) on CHO K1 cells stably transfected with the B1R gene of the rat (rB1R cells): % inhibition at 10 μM / IC50, agonist Des-Arg9-bradykinin; format: cell-based; conditions: CHO-K1, rat B1R
T2 construct: expressed in transfected cells; host or cells: CHO K1 cells
T2 sequence (P97583 1-337): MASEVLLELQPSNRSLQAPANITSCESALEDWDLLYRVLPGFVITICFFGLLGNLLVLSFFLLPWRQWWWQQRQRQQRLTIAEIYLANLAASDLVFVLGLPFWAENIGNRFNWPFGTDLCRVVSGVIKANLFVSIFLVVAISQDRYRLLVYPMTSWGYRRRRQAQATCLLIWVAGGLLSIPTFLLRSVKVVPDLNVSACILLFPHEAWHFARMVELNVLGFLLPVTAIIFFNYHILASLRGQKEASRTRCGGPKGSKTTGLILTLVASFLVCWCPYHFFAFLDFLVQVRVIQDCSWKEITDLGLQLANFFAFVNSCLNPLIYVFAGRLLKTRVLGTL
Summary of the method: as §1

inhibition at 10 µM [1] [%]	inhibition at 10 µM [2] [%]	Compound
92	100	O=C(c1ccc2c(c1)CC[C@@H]2N1Cc2cccc(Cl)c2C1=O)N1CCC2(CC1)CCN(c1ccncc1)CC2 [Example H-158, 7-Chloro-2-[(1S)-5-(9-pyridin-4-yl-3,9-diazaspiro[5.5]undecane-3-carbonyl)-2,3-dihydro-1H-inden-1-yl]-2,3-dihydro-isoindol-1-one]
98	103	O=C(c1ccc2c(c1)CC[C@H]2N1Cc2cccc(Cl)c2C1=O)N1CCC2(CC1)CCN(c1ccncc1)CC2 [Example H-159, 7-Chloro-2-[(1R)-5-(9-pyridin-4-yl-3,9-diazaspiro[5.5]undecane-3-carobnyl)-2,3-dihydro-1H-inden-1-yl]-2,3-dihydro-isoindol-1-one]
98	105	O=C(c1ccc2c(c1)CC[C@H]2N1Cc2cccc(Cl)c2C1=O)N1CCC2(CCN(c3ccncc3)CC2)C1 [Example H-160]
89	104	O=C(N[C@H]1CCc2c(C(=O)N3CCC4(CCN(c5ccncc5)CC4)C3)cccc21)c1ccccc1Cl [Example H-161, 2-Chloro-N-[(1S)-4-(8-pyridin-4-yl-3,8-diazaspiro[4.5]decane-3-carbonyl)-2,3-dihydro-1H-inden-1-yl]-benzamide]
13	61	O=C(N[C@@H]1CCc2c(C(=O)N3CCC4(CCN(c5ccncc5)CC4)C3)cccc21)c1ccccc1Cl [Example H-162, 2-Chloro-N-[(1R)-4-(8-pyridin-4-yl-3,8-diazaspiro[4.5]decane-3-carbonyl)-2,3-dihydro-1H-inden-1-yl]-benzamide]
63	105	O=C(N[C@H]1CCc2c(C(=O)N3CCC4(CC3)CCN(c3ccncc3)CC4)cccc21)c1ccccc1Cl [Example H-163, 2-Chloro-N-[(1S)-4-(9-pyridin-4-yl-3,9-diazaspiro[5.5]undecane-3-carbonyl)-2,3-dihydro-1H-inden-1-yl]-benzamide]
25	77	O=C(N[C@@H]1CCc2c(C(=O)N3CCC4(CC3)CCN(c3ccncc3)CC4)cccc21)c1ccccc1Cl [Example H-164, 2-Chloro-N-[(1R)-4-(9-pyridin-4-yl-3,9-diazaspiro[5.5]undecane-3-carbonyl)-2,3-dihydro-1H-inden-1-yl]-benzamide]
44	44	O=C(c1cccc2c1CC[C@@H]2NS(=O)(=O)c1ccccc1Cl)N1CCC2(CCN(c3ccncc3)CC2)C1 [Example H-165, 2-Chloro-N-[(1S)-4-(8-pyridin-4-yl-3,8-diazaspiro[4.5]decane-3-carbonyl)-2,3-dihydro-1H-inden-1-yl]-benzenesulfonic acid amide]
21	-4	O=C(c1cccc2c1CC[C@H]2NS(=O)(=O)c1ccccc1Cl)N1CCC2(CCN(c3ccncc3)CC2)C1 [Example H-166, 2-Chloro-N-[(1R)-4-(8-pyridin-4-yl-3,8-diazaspiro[4.5]decane-3-carbonyl)-2,3-dihydro-1H-inden-1-yl]-benzenesulfonic acid amide]
35	81	O=C(c1cccc2c1CC[C@H]2NS(=O)(=O)c1ccccc1Cl)N1CCC2(CC1)CCN(c1ccncc1)CC2 [Example H-167, 2-Chloro-N-[(1R)-4-(9-pyridin-4-yl-3,9-diazaspiro[5.5]undecane-3-carbonyl)-2,3-dihydro-1H-inden-1-yl]-benzenesulfonic acid amide]
96	55	O=C(c1cccc2c1CC[C@@H]2N1Cc2cccc(Cl)c2C1=O)N1CCC2(CCN(c3ccncc3)CC2)C1 [Example H-168, 7-Chloro-2-[(1S)-4-(8-pyridin-4-yl-3,8-diazaspiro[4.5]decane-3-carbonyl)-2,3-dihydro-1H-inden-1-yl]-2,3-dihydro-isoindol-1-one]
54	12	O=C(c1cccc2c1CC[C@H]2N1Cc2cccc(Cl)c2C1=O)N1CCC2(CCN(c3ccncc3)CC2)C1 [Example H-169, 7-Chloro-2-[(1R)-4-(8-pyridin-4-yl-3,8-diazaspiro[4.5]decane-3-carbonyl)-2,3-dihydro-1H-inden-1-yl]-2,3-dihydro-isoindol-1-one]
56	47	O=C(c1cccc2c1CC[C@H]2N1Cc2cccc(Cl)c2C1=O)N1CCC2(CC1)CCN(c1ccncc1)CC2 [Example H-170, 7-Chloro-2-[(1R)-4-(9-pyridin-4-yl-3,9-diazaspiro[5.5]undecane-3-carbonyl)-2,3-dihydro-1H-inden-1-yl]-2,3-dihydro-isoindol-1-one]
100	104	O=C(N[C@@H]1CCc2cc(C(=O)N3CCC4(CCN(c5ccncc5)CC4)C3)ccc21)c1ccccc1Cl [Example H-171]
99	105	O=C(N[C@@H]1CCc2cc(C(=O)N3CCC4(CC3)CCN(c3ccncc3)CC4)ccc21)c1ccccc1Cl [Example H-172, 2-chloro-N-[(1R)-5-(9-pyridin-4-yl-3,9-diazaspiro[5.5]undecane-3-carbonyl)-2,3-dihydro-1H-inden-1-yl]-benzamide]
100	89	O=C(c1ccc2c(c1)CC[C@H]2NS(=O)(=O)c1ccccc1Cl)N1CCC2(CCN(c3ccncc3)CC2)C1 [Example H-173, 2-Chloro-N-[(1R)-5-(8-pyridin-4-yl-3,8-diazaspiro[4.5]decane-3-carbonyl)-2,3-dihydro-1H-inden-1-yl]-benzenesulfonic acid amide]
100	102	CN(C(=O)c1cc(Cl)ccc1Cl)C1CCc2ccc(C(=O)N3CCC4(CC3)CCN(c3ccncc3)CC4)cc21 (stereo not drawn) [IND_CC-200, 2,5-Dichloro-N-methyl-N-[6-(9-pyridin-4-yl-3,9-diazaspiro[5.5]undecane-3-carbonyl)-2,3-dihydro-1H-inden-1-yl]-benzamide]
86	103	CN(C(=O)c1cc(C(F)(F)F)ccc1Cl)C1CCc2ccc(C(=O)N3CCC4(CC3)CCN(c3ccncc3)CC4)cc21 (stereo not drawn) [IND_CC-202, 2-Chloro-N-methyl-N-[6-(9-pyridin-4-yl-3,9-diazaspiro[5.5]undecane-3-carbonyl)-2,3-dihydro-1H-inden-1-yl]-5-(trifluoromethyl)-benzamide]
99	103	CN(C(=O)c1cc(F)ccc1Cl)C1CCc2ccc(C(=O)N3CCC4(CC3)CCN(c3ccncc3)CC4)cc21 (stereo not drawn) [IND_CC-203, 2-Chloro-5-fluoro-N-methyl-N-[6-(9-pyridin-4-yl-3,9-diazaspiro[5.5]undecane-3-carbonyl)-2,3-dihydro-1H-inden-1-yl]-benzamide]
99	102	O=C(NC1CCc2ccc(C(=O)N3CCC4(CC3)CCN(c3ccncc3)CC4)cc21)c1c(Cl)cccc1C(F)(F)F (stereo not drawn) [IND_CC-204, 2-Chloro-N-[6-(9-pyridin-4-yl-3,9-diazaspiro[5.5]undecane-3-carbonyl)-2,3-dihydro-1H-inden-1-yl]-6-(trifluoromethyl)-benzamide]
100	103	CC1(C)Cc2ccc(C(=O)N3CCC4(CC3)CCN(c3ccncc3)CC4)cc2C1NC(=O)c1c(Cl)cccc1C(F)(F)F (stereo not drawn) [IND_CC-206, 2-Chloro-N-[2,2-dimethyl-6-(9-pyridin-4-yl-3,9-diazaspiro[5.5]undecane-3-carbonyl)-1,3-dihydro-inden-1-yl]-6-(trifluoromethyl)-benzamide]
98	101	O=C(NC1CCc2ccc(C(=O)N3CCC4(CC3)CCN(c3ccncc3)CC4)cc21)c1cc(Cl)ccc1Cl (stereo not drawn) [IND_CC-207, 2,5-Dichloro-N-[6-(9-pyridin-4-yl-3,9-diazaspiro[5.5]undecane-3-carbonyl)-2,3-dihydro-1H-inden-1-yl]-benzamide]
99	100	O=C(NC1CCc2ccc(C(=O)N3CCC4(CC3)CCN(c3ccncc3)C4)cc21)c1cc(Cl)ccc1Cl (stereo not drawn) [IND_CC-208, 2,5-Dichloro-N-[6-(2-pyridin-4-yl-2,8-diazaspiro[4.5]decane-8-carbonyl)-2,3-dihydro-1H-inden-1-yl]-benzamide]
20	102	O=C(NC1CCc2ccc(C(=O)N3CCC4(CC3)CCN(c3ccc(C(F)(F)F)cc3)CC4)cc21)c1cc(Cl)ccc1Cl (stereo not drawn) [IND_CC-209, 2,5-Dichloro-N-[6-[9-[4-(trifluoromethyl)-phenyl]-3,9-diazaspiro[5.5]undecane-3-carbonyl]-2,3-dihydro-1H-inden-1-yl]-benzamide]
